Test results as given in US10576062B2, “Carbamoyloxymethyl triazole cyclohexyl acids as LPA antagonists” (Bristol-Myers Squibb Company, priority 2016, dated 2020).

target: T1, human LPA1 (Homo sapiens, UniProt Q92633); assay: LPA1 functional antagonist assay (LPA-induced calcium flux); type: cell-based; conditions: read-out: hLPA1 IC50
T1 construct: expressed in transfected cells; host or cells: Chinese hamster ovary (CHO) cells
How it was run: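 CHO cells overexpressing human LPA1, loaded with calcium dye 30 min at 37° C, were preincubated 20 min at room temperature with compound (0.08 nM–5 μM, 0.5% DMSO) in HBSS/20 mM HEPES/0.1% fatty acid-free BSA.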

T1 sequence (Q92633 whole entry): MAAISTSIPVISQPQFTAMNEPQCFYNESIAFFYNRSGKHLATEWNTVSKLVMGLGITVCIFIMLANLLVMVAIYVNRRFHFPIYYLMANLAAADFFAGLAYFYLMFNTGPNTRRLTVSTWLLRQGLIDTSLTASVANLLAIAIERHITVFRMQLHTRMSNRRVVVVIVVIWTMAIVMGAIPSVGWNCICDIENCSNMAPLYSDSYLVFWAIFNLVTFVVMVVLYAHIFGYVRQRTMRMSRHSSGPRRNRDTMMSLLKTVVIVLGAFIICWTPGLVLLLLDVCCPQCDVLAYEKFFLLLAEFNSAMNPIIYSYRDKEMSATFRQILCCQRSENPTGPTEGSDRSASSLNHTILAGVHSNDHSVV

First: CCC(CC)N(C)C(=O)OCc1c(-c2ccc(O[C@H]3CCC[C@H](C(=O)O)C3)c(C)n2)nnn1C [Example 83, (1S,3S)-3-((2-Methyl-6-(1-methyl-5-(((methyl(pentan-3-yl)carbamoyl)oxy)methyl)-1H-1,2,3-triazol-4-yl)pyridin-3-yl)oxy)cyclohexanecarboxylic acid]
Second: CCCN(C)C(=O)OCc1c(-c2ccc(O[C@H]3CCC[C@H](C(=O)O)C3)c(C)n2)nnn1C [Example 104, (1S,3S)-3-((2-methyl-6-(1-methyl-5-(((methyl(propyl)carbamoyl)oxy)methyl)-1H-1,2,3-triazol-4-yl)pyridin-3-yl)oxy)cyclohexane-1-carboxylic acid]
The IC50 of the first is 4.8-fold higher: 92 nM for the first, 19 nM for the second. The second is the more potent here.

Compared with CCCC(C)(C)N(C)C(=O)OCc1c(-c2ccc(O[C@H]3CCC[C@H](C(=O)O)C3)c(C)n2)nnn1C [Example 84, (1S,3S)-3-((2-methyl-6-(1-methyl-5-(((methyl(2-methylpentan-2-yl)carbamoyl)oxy)methyl)-1H-1,2,3-triazol-4-yl)pyridin-3-yl)oxy)cyclohexanecarboxylic acid], Cc1nc(-c2nnn(C)c2COC(=O)N(C)CC(C)C)ccc1O[C@H]1CCC[C@H](C(=O)O)C1 [Example 116, (1S,3S)-3-((6-(5-(((isobutyl(methyl)carbamoyl)oxy)methyl)-1-methyl-1H-1,2,3-triazol-4-yl)-2-methylpyridin-3-yl)oxy)cyclohexane-1-carboxylic acid] is 2.4-fold lower in IC50: 69 nM for the first, 29 nM for the second. The second is the more potent here.

Going from Cc1nc(-c2nnn(C)c2COC(=O)N(C)C2(C)CC2)ccc1O[C@H]1CCC[C@H](C(=O)O)C1 [Example 85, (1S,3S)-3-((2-methyl-6-(1-methyl-5-(((methyl(1-methylcyclopropyl)carbamoyl)oxy)methyl)-1H-1,2,3-triazol-4-yl)pyridin-3-yl)oxy)cyclohexane-1-carboxylic acid] to CCCC1(N(C)C(=O)OCc2c(-c3ccc(O[C@H]4CCC[C@H](C(=O)O)C4)c(C)n3)nnn2C)CC1 [Example 87, (1S,3S)-3-((2-methyl-6-(1-methyl-5-(((methyl(1-propylcyclopropyl)carbamoyl)oxy)methyl)-1H-1,2,3-triazol-4-yl)pyridin-3-yl)oxy)cyclohexane-1-carboxylic acid], the IC50 falls from 58 nM to 36 nM (1.6-fold). The second is the more potent here.

Going from Cc1nc(-c2nnn(C)c2COC(=O)N(C)C(C2CC2)C2CC2)ccc1O[C@H]1CCC[C@H](C(=O)O)C1 [Example 86, (1S,3S)-3-((6-(5-((((Dicyclopropylmethyl)(methyl)carbamoyl)oxy)methyl)-1-methyl-1H-1,2,3-triazol-4-yl)-2-methylpyridin-3-yl)oxy)cyclohexanecarboxylic acid] to Cc1nc(-c2nnn(C)c2COC(=O)N(C)CC2CC2)ccc1O[C@H]1CCC[C@H](C(=O)O)C1 [Example 115, (1S,3S)-3-((6-(5-((((cyclopropylmethyl)(methyl)carbamoyl)oxy)methyl)-1-methyl-1H-1,2,3-triazol-4-yl)-2-methylpyridin-3-yl)oxy)cyclohexane-1-carboxylic acid], the IC50 falls from 54 nM to 18 nM (3-fold). The second is the more potent here.

Going from CC(OC(=O)N(C)C1CCCC1)c1c(-c2ccc(O[C@H]3CCC[C@H](C(=O)O)C3)cc2)nnn1C (stereo partly drawn) [Example 94, (1S,3S)-3-(4-(5-(1-((cyclopentyl(methyl)carbamoyl)oxy)ethyl)-1-methyl-1H-1,2,3-triazol-4-yl)phenoxy)cyclohexane-1-carboxylic acid] to [2H]C([2H])([2H])n1nnc(-c2ccc(O[C@H]3CCC[C@H](C(=O)O)C3)cn2)c1COC(=O)N(C)C1CCCC1 [Example 111, (1S,3S)-3-((6-(5-(((cyclopentyl(methyl)carbamoyl)oxy)methyl)-1-(methyl-d3)-1H-1,2,3-triazol-4-yl)pyridin-3-yl)oxy)cyclohexane-1-carboxylic acid], the IC50 falls from 241 nM to 23 nM (10-fold).

First: Cc1nc(-c2nnn(C)c2COC(=O)N(C)Cc2ccccc2F)ccc1O[C@H]1CCC[C@H](C(=O)O)C1 [Example 98, (1S,3S)-3-((6-(5-((((2-fluorobenzyl)(methyl)carbamoyl)oxy)methyl)-1-methyl-1H-1,2,3-triazol-4-yl)-2-methylpyridin-3-yl)oxy)cyclohexane-1-carboxylic acid]
Second: Cc1nc(-c2nnn(C)c2COC(=O)N(C)Cc2ccccn2)ccc1O[C@H]1CCC[C@H](C(=O)O)C1 [Example 118, (1S,3S)-3-((2-methyl-6-(1-methyl-5-(((methyl(pyridin-2-ylmethyl)carbamoyl)oxy)methyl)-1H-1,2,3-triazol-4-yl)pyridin-3-yl)oxy)cyclohexane-1-carboxylic acid]
The IC50 of the first is 11-fold lower: 19 nM for the first, 211 nM for the second.

First: Cc1nc(-c2nnn(C)c2COC(=O)N(C)C2(c3ccccc3)CC2)ccc1O[C@H]1CCC[C@H](C(=O)O)C1 [Example 100, (1S,3S)-3-((2-methyl-6-(1-methyl-5-(((methyl(1-phenylcyclopropyl)carbamoyl)oxy)methyl)-1H-1,2,3-triazol-4-yl)pyridin-3-yl)oxy)cyclohexane-1-carboxylic acid]
Second: Cc1nc(-c2nnn(C)c2COC(=O)N(C)CCc2ccccc2)ccc1O[C@H]1CCC[C@H](C(=O)O)C1 [Example 103, (1S,3S)-3-((2-methyl-6-(1-methyl-5-(((methyl(phenethyl)carbamoyl)oxy)methyl)-1H-1,2,3-triazol-4-yl)pyridin-3-yl)oxy)cyclohexane-1-carboxylic acid]
The IC50 of the first is 1.7-fold lower: 70 nM for the first, 119 nM for the second. The first is the more potent here.

Going from Cc1nc(-c2nnn(C)c2COC(=O)N(C)CCC(F)(F)F)ccc1O[C@H]1CCC[C@H](C(=O)O)C1 [Example 101, (1S,3S)-3-((2-methyl-6-(1-methyl-5-(((methyl(3,3,3-trifluoropropyl)carbamoyl)oxy)methyl)-1H-1,2,3-triazol-4-yl)pyridin-3-yl)oxy)cyclohexane-1-carboxylic acid] to Cc1nc(-c2nnn(C)c2COC(=O)N(C)Cc2ncccn2)ccc1O[C@H]1CCC[C@H](C(=O)O)C1 [Example 121, (1S,3S)-3-((2-methyl-6-(1-methyl-5-(((methyl(pyrimidin-2-ylmethyl)carbamoyl)oxy)methyl)-1H-1,2,3-triazol-4-yl)pyridin-3-yl)oxy)cyclohexane-1-carboxylic acid], the IC50 rises from 49 nM to 1090 nM (22-fold).

Compared with Cc1nc(-c2nnn(C)c2COC(=O)N(C)C23CC(C2)C3)ccc1O[C@H]1CCC[C@H](C(=O)O)C1 [Example 102, (1S,3S)-3-((6-(5-(((bicyclo[1.1.1]pentan-1-yl(methyl)carbamoyl)oxy)methyl)-1-methyl-1H-1,2,3-triazol-4-yl)-2-methylpyridin-3-yl)oxy)cyclohexane-1-carboxylic acid], Cc1nc(-c2nnn(C)c2COC(=O)NC23CC(C2)C3)ccc1O[C@H]1CCC[C@H](C(=O)O)C1 [Example 105, (1S,3S)-3-((6-(5-(((bicyclo[1.1.1]pentan-1-ylcarbamoyl)oxy)methyl)-1-methyl-1H-1,2,3-triazol-4-yl)-2-methylpyridin-3-yl)oxy)cyclohexane-1-carboxylic acid] is 11-fold higher in IC50: 53 nM for the first, 576 nM for the second. The first is the more potent here.

Compared with Cc1nc(-c2nnn(C)c2COC(=O)NCC2CCC2)ccc1O[C@H]1CCC[C@H](C(=O)O)C1 [Example 108, (1S,3S)-3-((6-(5-((((cyclobutylmethyl)carbamoyl)oxy)methyl)-1-methyl-1H-1,2,3-triazol-4-yl)-2-methylpyridin-3-yl)oxy)cyclohexane-1-carboxylic acid], CCN(CC1CCC1)C(=O)OCc1c(-c2ccc(O[C@H]3CCC[C@H](C(=O)O)C3)c(C)n2)nnn1C [Example 113, (1S,3S)-3-((6-(5-((((cyclobutylmethyl)(ethyl)carbamoyl)oxy)methyl)-1-methyl-1H-1,2,3-triazol-4-yl)-2-methylpyridin-3-yl)oxy)cyclohexane-1-carboxylic acid] is 7.2-fold lower in IC50: 108 nM for the first, 15 nM for the second.

Compared with [2H]C([2H])([2H])n1nnc(-c2ccc(O[C@H]3CCC[C@H](C(=O)O)C3)cn2)c1COC(=O)N(C)CC1CC1 [Example 110, (1S,3S)-3-((6-(5-((((cyclopropylmethyl)(methyl)carbamoyl)oxy)methyl)-1-(methyl-d3)-1H-1,2,3-triazol-4-yl)pyridin-3-yl)oxy)cyclohexane-1-carboxylic acid], [2H]C([2H])([2H])n1nnc(-c2ccc(O[C@H]3CCC[C@H](C(=O)O)C3)cn2)c1COC(=O)N(C)CCCC [Example 112, (1S,3S)-3-((6-(5-(((butyl(methyl)carbamoyl)oxy)methyl)-1-(methyl-d3)-1H-1,2,3-triazol-4-yl)pyridin-3-yl)oxy)cyclohexane-1-carboxylic acid] is 1.8-fold lower in IC50: 31 nM for the first, 17 nM for the second.

Going from Cc1nc(-c2nnn(C)c2COC(=O)N2CCOCC2)ccc1O[C@H]1CCC[C@H](C(=O)O)C1 [Example 114, (1S,3S)-3-((2-methyl-6-(1-methyl-5-(((morpholine-4-carbonyl)oxy)methyl)-1H-1,2,3-triazol-4-yl)pyridin-3-yl)oxy)cyclohexane-1-carboxylic acid] to Cc1nc(-c2nnn(C)c2COC(=O)N(C)CC2CCOCC2)ccc1O[C@H]1CCC[C@H](C(=O)O)C1 [Example 117, (1S,3S)-3-((2-methyl-6-(1-methyl-5-(((methyl((tetrahydro-2H-pyran-4-yl)methyl)carbamoyl)oxy)methyl)-1H-1,2,3-triazol-4-yl)pyridin-3-yl)oxy)cyclohexane-1-carboxylic acid], the IC50 falls from 643 nM to 17 nM (38-fold).

Cc1nc(-c2nnn(C)c2COC(=O)N(C)Cc2cccnc2)ccc1O[C@H]1CCC[C@H](C(=O)O)C1 [Example 120, (1S,3S)-3-((2-methyl-6-(1-methyl-5-(((methyl(pyridin-3-ylmethyl)carbamoyl)oxy)methyl)-1H-1,2,3-triazol-4-yl)pyridin-3-yl)oxy)cyclohexane-1-carboxylic acid] and Cc1nc(-c2nnn(C)c2COC(=O)N(C)Cc2ccncc2)ccc1O[C@H]1CCC[C@H](C(=O)O)C1 [Example 122, (1S,3S)-3-((2-methyl-6-(1-methyl-5-(((methyl(pyridin-4-ylmethyl)carbamoyl)oxy)methyl)-1H-1,2,3-triazol-4-yl)pyridin-3-yl)oxy)cyclohexane-1-carboxylic acid] are within 1.5-fold of each other in IC50: 809 nM for the first, 873 nM for the second.
